# Patent US20060073574A1 (priority 2001, published 2006)
# What was measured:
# BSE or scrapie agents = settings: cited from earlier work; for survival times: hamsters and mice infected intracerebrally with BSE or scrapie agents; for delaying the onset of symptoms associated with scrapie and BSE: transmissible spongiform encephalopathies scrapie and BSE
# [1] = system: human immunodeficiency virus (HIV); settings: cited from earlier work; for inhibition of HIV infection / HIV-1 replication: cultured cells
# [2] = compared with amphotericin B; cited from earlier work
# [3] = derivative of amphotericin B; cited from earlier work
# Saccharomyces cerevisiae = assay: antifungal activity test against Saccharomyces cerevisiae; settings: tested against Saccharomyces cerevisiae
# Leishmania = settings: cited from earlier work
# [4] = amphotericin B: intravenous or intrathecal routes; cited from earlier work
smiles,measurement,setting,value
CNC[C@H](O)[C@@H](O)[C@H](O)[C@H](O)CO.C[C@@H]1[C@H](O)[C@@H](C)/C=C/C=C/C=C/C=C/C=C/C=C/C=C/[C@H](O[C@@H]2O[C@H](C)[C@@H](O)[C@H](NCC(=O)[C@@H](O)[C@@H]3OC(c4ccccc4)OC[C@H]3O)[C@@H]2O)C[C@@H]2O[C@](O)(C[C@@H](O)C[C@@H](O)[C@H](O)CC[C@@H](O)C[C@@H](O)CC(=O)O[C@H]1C)C[C@H](O)[C@H]2C(=O)O (stereo partly shown) [MS-8209],survival times,BSE or scrapie agents,prolonged the survival times
same,delaying the onset of symptoms associated with scrapie and BSE,BSE or scrapie agents,showed activity in delaying the onset of symptoms
same,T-cell activation via the CD3/TcR,[1]; HIV CD4+ cells,restore T-cell activation
same,inhibition of HIV infection / HIV-1 replication,[1]; in vitro,inhibit HIV-1 replication in vitro in all cell types
same,cytotoxicity,"[1]; in vitro, all cell types",without cytotoxicity
same,water solubility,[2],more water soluble
same,activity retained,[3],retains activity
C[C@@H]1[C@H](O)[C@@H](C)/C=C/C=C/C=C/C=C/C=C/C=C/C=C/[C@H](O[C@@H]2O[C@@H](C)[C@@H](O)[C@H](N)[C@@H]2O)C[C@@H]2O[C@](O)(C[C@@H](O)C[C@@H](O)CCC[C@@H](O)C[C@@H](O)CC(=O)O[C@H]1C)C[C@H](O)[C@H]2C(=O)O [8-deoxyamphotericin B],antifungal activity,Saccharomyces cerevisiae,as great as that of amphotericin B
C[C@@H]1[C@H](O)[C@@H](C)/C=C/C=C/C=C/C=C/C=C/C=C/C=C/[C@H](O[C@@H]2O[C@H](C)[C@@H](O)[C@H](N)[C@@H]2O)C[C@@H]2O[C@](O)(C[C@@H](O)C[C@@H](O)[C@H](O)CC[C@@H](O)C[C@@H](O)CC(=O)O[C@H]1C)C[C@H](O)[C@H]2C(=O)O [Amphotericin B],survival times,BSE or scrapie agents,prolonged the survival times
same,delaying the onset of symptoms associated with scrapie and BSE,BSE or scrapie agents,showed activity in delaying the onset of symptoms
same,inhibition of HIV infection / HIV-1 replication,[1]; in vitro,inhibits infection of cultured cells
same,activity against Leishmania,Leishmania,active against Leishmania
same,toxicity,[4],consistently associated with a number of toxic side-effects
